Source: patent US20230149409A1, “TREATMENT OF HUMAN PAPILLOMAVIRUS-ASSOCIATED CANCERS BY PD-L1 INHIBITORS” (priority 2021, published 2023)

Key:
[1] = target: T1, PD-L1 on CD14+ cells in human whole blood (Homo sapiens, UniProt Q9NZQ7); assay: PD-L1 whole blood internalization assay; type: cell-based; conditions: 1 ng/mL interferon γ, CD14+ gated, 24 hour
T1 construct: Cells were gated on CD14+ (BD Biosciences) and PD-L1 expression determined by mean fluorescence intensity; host or cells: CD14+ cells in normal human whole blood, stimulated with human interferon gamma
T1 sequence (Q9NZQ7 19-290): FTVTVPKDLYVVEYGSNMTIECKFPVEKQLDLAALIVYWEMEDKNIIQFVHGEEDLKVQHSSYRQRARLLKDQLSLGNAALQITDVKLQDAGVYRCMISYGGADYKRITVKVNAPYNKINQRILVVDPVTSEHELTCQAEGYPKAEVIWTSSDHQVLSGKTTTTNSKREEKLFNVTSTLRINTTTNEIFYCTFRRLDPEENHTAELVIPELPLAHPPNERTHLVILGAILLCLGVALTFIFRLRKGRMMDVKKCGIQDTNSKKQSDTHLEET
How it was run: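 Normal human whole blood exposed to compound concentration range plus 1 ng/mL IFN-γ for 18–20 h at 37 °C, then stained for PD-L1 and CD14, red cells lysed/fixed. PD-L1 MFI measured on CD14+ gated cells by flow cytometry; IC50 from percent inhibition versus log concentration fit.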

[2] = target: T2, PD-⅟PD-L1 (recombinant human PD-L1 protein and human PD-1 protein) (Homo sapiens, UniProt Q9NZQ7); assay: Homogeneous Time-Resolved Fluorescence (HTRF) PD-1/PD-L1 binding assay; conditions: 3 nM PD1, 10 nM PD-L1, 25° C., PBS pH 7.4
T2 construct: Recombinant human PD-L1 protein (19-238) with a His-tag at the C-terminus; purchased AcroBiosystems PD1-H5229 (PD-L1); PD1-H5257 (PD-1)
T2 sequence (Q9NZQ7 19-238): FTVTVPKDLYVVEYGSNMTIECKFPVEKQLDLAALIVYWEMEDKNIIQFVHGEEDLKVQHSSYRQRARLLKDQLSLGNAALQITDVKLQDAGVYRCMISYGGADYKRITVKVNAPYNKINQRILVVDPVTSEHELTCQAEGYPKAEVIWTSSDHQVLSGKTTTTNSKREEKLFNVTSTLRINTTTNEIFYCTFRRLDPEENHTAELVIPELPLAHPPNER

[3] = test system: select advanced solid tumors (HPV+ carcinomas); assay: Phase 1 open-label clinical trial of Compound 24; type: in vivo, human; parameters: key: complete response (CR); partial response (PR); stable disease (SD); progressive disease (PD)
Description: Two open-label, nonrandomized, global multicenter Phase 1 studies in participants with select advanced solid tumors are being conducted for Compounds 24 and 30 in Table 1 supra. In addition to the primary endpoint of determining safety, tolerability, PAD and/or maximum tolerated dose (MTD) of each compound, the studies are exploring preliminary efficacy (complete response (CR), partial response (PR), stable disease (SD), or progressive disease (PD)) in participants with select advanced cancers, including virally mediated tumors such as HPV+ carcinomas. HPV+ tumors can be determined by a local laboratory using p16 IHC, polymerase chain reaction methods, or other locally-available method to detect HPV. Results for patients having solid tumors whose HPV+ status was confirmed, suspected or negative are shown below for Compound 24 and Compound 30 in Tables 4 and 5, respectively.

[4] = test system: PD-L1 (PD-L1 aAPC/CHO-K1 cells, Jurkat-PD-1-NFAT effector cells); assay: Nuclear Factor of Activated T-cells (NFAT) assay; type: cell-based; conditions: Cricetulus griseus; PD-L1 aAPC/CHO-K1 + Jurkat-PD-1-NFAT cells, 24 hours
How it was run: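 PD-L1 aAPC/CHO-K1 cells (8000/well) were treated with compound (0.4% DMSO, 2 µM final), then co-cultured with Jurkat-PD-1-NFAT effector cells for 24 hours at 37° C. NFAT luciferase luminescence was normalized to DMSO as fold induction. Maximum induction is relative to the control compound's top FOI; EC50 is from curve fitting.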

[5] = test system: PD-L1 (U2OS/PD-L1 cells, Jurkat-PD-1-SHP cells); assay: Src Homology Region 2 Domain-containing Phosphatase (SHP) assay; type: cell-based; conditions: Homo sapiens; U2OS/PD-L1 + Jurkat-PD-1-SHP cells, 2 hours
How it was run: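 U2OS/PD-L1 cells and Jurkat-PD-1-SHP cells (5,000 each per well) were co-incubated with compound in RPMI1640/1% FBS for 2 h at 37° C, with final DMSO 0.05%. PathHunter chemiluminescence was read after 1 h at room temperature. IC50 was fitted from percent of DMSO-control activity against log concentration.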

Cc1c(Nc2nc(C(F)F)nc3cc(CN4CC[C@@H](O)C4)cnc23)cccc1-c1cccc(-c2nc3cc(CN4CCC(C(=O)O)CC4)cc(C#N)c3o2)c1C [Compound 24]
IC50 [1]: < 100 nM
IC50 [2]: < 10 nM
Best Overall Response ([3]; Patient 1, 200 mg QD, Cervical cancer (AC), HPV/p16 status Not determined): SD
Best Overall Response ([3]; Patient 2, 200 mg BID, Cervical cancer (clear cell), HPV/p16 status Not determined): PD
Best Overall Response ([3]; Patient 3, 400 mg BID, Anal carcinoma, HPV 16 positive): SD
Best Overall Response ([3]; Patient 4, 400 mg BID, Anal carcinoma, HPV 16 positive): SD
Best Overall Response ([3]; Patient 5, 300 mg BID, Vaginal cancer (SCC), HPV 16 positive): SD
Best Overall Response ([3]; Patient 6, 400 mg BID, Cervical cancer (SCC), HPV 16 positive): PR
Best Overall Response ([3]; Patient 7, 200 mg BID, Anal carcinoma (SCC), Positive unknown type): PD
Best Overall Response ([3]; Patient 8, 400 mg BID, Anal carcinoma, HPV 16 positive): PD
Best Overall Response ([3]; Patient 9, 600 mg QD, Anal carcinoma (rectovaginal), HPV 16,33,31 positive): SD
Best Overall Response ([3]; Patient 10, 400 mg BID, Cervical cancer (AC), HPV 16 positive): SD
Best Overall Response ([3]; Patient 11, 400 mg BID, Anal carcinoma (SCC), HPV/p16 status Not determined): PR
Best Overall Response ([3]; Patient 12, 600 mg QD, Anal carcinoma (SCC), HPV/p16 status Not determined): SD
Best Overall Response ([3]; Patient 13, 400 mg BID, Rectovaginal septum (SCC), P16+, HPV 16): PD
Best Overall Response ([3]; Patient 14, 600 mg QD, Anal carcinoma, HPV 16): PD
Best Overall Response ([3]; Patient 15, 800 mg QD, Anal carcinoma, HPV 16): PD
Best Overall Response ([3]; Patient 16, 800 mg QD, Vulvar (SCC), HPV/p16 status Not determined): PD
Best Overall Response ([3]; Patient 18, 800 mg QD, Cervical cancer (SCC), P16 positive): PD
Best Overall Response ([3]; Patient 19, 800 mg QD, Anal cancer, HPV 16 positive): PD
Best Overall Response ([3]; Patient 20, 800 mg QD, Anal cancer, HPV 16 positive): PD
Best Overall Response ([3]; Patient 21, 300 mg BID, Anal cancer, HPV 16): SD

Cc1c(Nc2nc(C(F)F)nc3cc(CN4CC[C@@H](O)C4)cnc23)cccc1-c1cccc(NC(=O)c2nc3c(n2C)CCN(CCC24CCC(C(=O)O)(CC2)C4)C3)c1Cl [Compound 34, (R)-4-(2-(2-((2-chloro-3′-((2-(difluoromethyl)-7-((3-hydroxypyrrolidin-1-yl)methyl)pyrido[3,2-d]pyrimidin-4-yl)amino)-2′-methyl-[1,1′-biphenyl]-3-yl)carbamoyl)-1-methyl-1,4,6,7-tetrahydro-5H-imidazo[4,5-c]pyridin-5-yl)ethyl)bicyclo[2.2.1]heptane-1-carboxylic acid]
EC50 [4]: < 10 nM
IC50 [5]: < 10 nM
IC50 [1]: < 10 nM
IC50 [2]: < 10 nM
